Measured values: US20110046227A1, “METHODS FOR CONCOMITANT ADMINISTRATION OF […] A SECOND ACTIVE AGENT” (MUTUAL PHARMACEUTICAL COMPANY, INC., priority 2009, published 2011)
Like-named read-outs stand apart in the source and are kept apart here.

Assay: Pharmacokinetic study in healthy adults of single vs. multiple oral doses of colchicine tablets (Example 1);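 further: Single-dose and multiple-dose periods given to the same subjects, with a 14-day washout between the two periods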
Type: in vivo, human
Conditions: for Vd/F / half-life / Tmax / AUC(0-inf) / AUC(0-t) / AUC / Cmax: human, plasma, 0.6 mg; for Vd/F: Vd = CL/Ke, calculated from mean values, read-out: Vd/F, Mean (% CV)
[1] = multiple (b.i.d.) oral doses colchicine 0.6 mg for 10 days, Day 25, healthy adults N=13, plasma, median

Procedure: Subjects received a light breakfast served 60 minutes following dose administration in the morning and the evening dose was administered 90 minutes after an evening meal on Days 15 through 24 only. […] Study periods were separated by a 14-day washout. Following the single dose and the last dose of the multiple dose regimen (beginning on the mornings of Day 1 and Day 25, respectively), blood samples were collected (6 mL each) from each subject within 1 hour prior to dosing and after dose administration at study hours 0.5, 1, 1.5, 2, 3, 4, 6, 8, 10, 12, and 24 (while confined) and 36, 48, 72, and 96 (on an outpatient basis).
All subjects completed both dosing periods according to protocol.
In tables, the parameter CL/F denotes the apparent total body clearance after administration, calculated as Total Dose/Total AUC0-tau; and Vd/F denotes the apparent total volume of distribution after administration, calculated as Total Dose/(Total AUC∞×Kel).
Pharmacokinetic parameters referred to herein describe the in vivo characteristics of drug (or a metabolite or a surrogate marker for the drug) over time. These include plasma concentration (C), as well as Cmax, Cn, C24, Tmax, and AUC. “Cmax” is the measured plasma concentration of the active agent at the point of maximum, or peak, concentration. “Cmin” is the measured plasma concentration of the active agent at the point of minimum concentration. “Cn” is the measured plasma concentration of the active agent at about n hours after administration. […] The term “Tmax” refers to the time from drug administration until Cmax is reached. “AUC” is the area under the curve of a graph of the measured plasma concentration of an active agent vs. time, measured from one time point to another time point. […] Time t can be the last time point with measurable plasma concentration for an individual formulation. The AUC0-∞, AUC∞ or AUC0-inf is the calculated area under the curve of plasma concentration versus time from time 0 to time infinity.

In the case of `COc1cc2c(c(OC)c1O)-c1ccc(OC)c(=O)cc1[C@@H](NC(C)=O)CC2` [2-O-demethylcolchicine], the metabolite plasma concentration (after colchicine 0.6 mg single and multiple doses, LOQ 0.2 ng/mL, 13 subjects) is reported as < 0.2 ng/mL.
In the case of `COc1cc2c(c(OC)c1OC)-c1ccc(OC)c(=O)cc1[C@@H](NC(C)=O)CC2` [Colchicine, (−)-N-[(7S,12aS)-1,2,3,10-tetramethoxy-9-oxo-5,6,7,9-tetrahydrobenzo[a]heptalen-7-yl]-acetamide], the “attainment of steady state (trough plasma concentrations)” value (0.6 mg b.i.d., most subjects) is reported as “by approximately the eighth day of dosing”, the elimination half-life (calculated following a single oral dose, stated not to be an accurate estimate) is reported as “approximately 5 hours” and the secondary colchicine peak (following a single dose or upon multiple dosing, individual subject data) is reported as “no subject experienced a secondary colchicine peak”. The “apparent volume of distribution” value (healthy adults, oral, single dose) was 540 L, the Vd/F (oral, colchicine 0.6 mg b.i.d. × 10 days, Day 25) was 1150 L and the Vd/F (oral, colchicine 0.6-mg single dose, Day 1, N=13) was 341 L. The half-life (oral, repeated dosing 0.6 mg b.i.d., read-out: terminal elimination half life (converted)) was 26.6 h, the half-life (po, multiple (b.i.d.) oral doses colchicine 0.6 mg for 10 days, Day 25, healthy adults N=13, mean, read-out: T1/2, MEAN (converted)) was 26.6 h and the Tmax (po, multiple (b.i.d.) oral doses colchicine 0.6 mg for 10 days, Day 25, healthy adults N=13, mean, read-out: Tmax, MEAN) was 1.31 h. The half-life (po, multiple (b.i.d.) oral doses colchicine 0.6 mg for 10 days, Day 25, healthy adults N=13, median, read-out: T1/2, MEDIAN (converted)) was 26.5 h, the Tmax (po, multiple (b.i.d.) oral doses colchicine 0.6 mg for 10 days, Day 25, healthy adults N=13, median, read-out: Tmax, MEDIAN) was 1 h and the AUC(0-inf) (po, multiple (b.i.d.) oral doses colchicine 0.6 mg for 10 days, Day 25, healthy adults N=13, plasma, mean, read-out: AUC0-inf, MEAN) was 54.2 ng·h/mL. For the same molecule, the AUC(0-t) (po, multiple (b.i.d.) oral doses colchicine 0.6 mg for 10 days, Day 25, healthy adults N=13, plasma, mean, read-out: AUC0-t, MEAN) was 43.6 ng·h/mL, the AUC (po, multiple (b.i.d.) oral doses colchicine 0.6 mg for 10 days, Day 25, healthy adults N=13, plasma, mean, read-out: AUC0-τ, MEAN) was 20.4 ng·h/mL and the Cmax (po, multiple (b.i.d.) oral doses colchicine 0.6 mg for 10 days, Day 25, healthy adults N=13, plasma, mean, read-out: Cmax, MEAN) was 3.55 ng/mL. For the same molecule, the AUC(0-inf) (po, multiple (b.i.d.) oral doses colchicine 0.6 mg for 10 days, Day 25, healthy adults N=13, plasma, median, read-out: AUC0-inf, MEDIAN) was 54.1 ng·h/mL, the AUC(0-t) (po, multiple (b.i.d.) oral doses colchicine 0.6 mg for 10 days, Day 25, healthy adults N=13, plasma, median, read-out: AUC0-t, MEDIAN) was 41.9 ng·h/mL and the AUC (po, multiple (b.i.d.) oral doses colchicine 0.6 mg for 10 days, Day 25, healthy adults N=13, plasma, median, read-out: AUC0-τ, MEDIAN) was 20.4 ng·h/mL. It also gave a Cmax (po, multiple (b.i.d.) oral doses colchicine 0.6 mg for 10 days, Day 25, healthy adults N=13, plasma, median, read-out: Cmax, MEDIAN) of 3.73 ng/mL, a half-life (po, single oral dose colchicine 0.6 mg, healthy adults N=13, mean, read-out: T1/2, MEAN (converted)) of 4.95 h and a half-life (po, single oral dose colchicine 0.6 mg, healthy adults N=13, median, read-out: T1/2, MEDIAN (converted)) of 3.48 h. It also gave a Tmax (po, single oral dose colchicine 0.6 mg, healthy adults N=13, median, read-out: Tmax, MEDIAN) of 1.5 h, an AUC(0-inf) (po, single oral dose colchicine 0.6 mg, healthy adults N=13, plasma, mean, read-out: AUC0-inf, MEAN) of 12.3 ng·h/mL and an AUC(0-t) (po, single oral dose colchicine 0.6 mg, healthy adults N=13, plasma, mean, read-out: AUC0-t, MEAN) of 10.5 ng·h/mL. The Cmax (po, single oral dose colchicine 0.6 mg, healthy adults N=13, plasma, mean, read-out: Cmax, MEAN) was 2.45 ng/mL, the AUC(0-inf) (po, single oral dose colchicine 0.6 mg, healthy adults N=13, plasma, median, read-out: AUC0-inf, MEDIAN) was 11.5 ng·h/mL and the AUC(0-t) (po, single oral dose colchicine 0.6 mg, healthy adults N=13, plasma, median, read-out: AUC0-t, MEDIAN) was 10.6 ng·h/mL. The Cmax (po, single oral dose colchicine 0.6 mg, healthy adults N=13, plasma, median, read-out: Cmax, MEDIAN) was 2.48 ng/mL, the “Kel, MEAN” value (multiple (b.i.d.) oral doses colchicine 0.6 mg for 10 days, Day 25, healthy adults N=13, mean) was 0.0267 h⁻¹ and the “Kel, MEDIAN” value (multiple (b.i.d.) oral doses colchicine 0.6 mg for 10 days, Day 25, healthy adults N=13, median) was 0.0261 h⁻¹. For the same molecule, the “Cave, MEAN” value (multiple (b.i.d.) oral doses colchicine 0.6 mg for 10 days, Day 25, healthy adults N=13, plasma, mean) was 1.69722 ng/mL, the “Cave, MEDIAN” value [1] was 1.70192 ng/mL and the “Cmin, MEDIAN” value [1] was 0.9035 ng/mL. The “mean Cmin concentration” value (observed on Day 25, 0.6 mg b.i.d. steady state regimen) was 0.907 ng/mL, the “plasma concentrations quantifiable after a single dose” value (single dose 0.6 mg, 24 hours post-dose) was “no longer quantifiable 24 hours post-dose in all but 1 subject” and the “Kel, MEAN” value (single oral dose colchicine 0.6 mg, healthy adults N=13, mean) was 0.1829 h⁻¹. For the same molecule, the “Kel, MEDIAN” value (single oral dose colchicine 0.6 mg, healthy adults N=13, median) was 0.1992 h⁻¹ and the “Cmin prior to the morning dose higher than Cmin prior to the evening dose” value (steady state, Day 23 and Day 24) was “approximately 12%”.
